# According to PMC8286840, “Identifying SARS-CoV-2 antiviral compounds by screening for small molecule inhibitors of Nsp3 papain-like protease” (Biochemical Journal, 2021):
# Where a name gives a salt, the structure may show the parent alone. Read-outs that look alike come from different tables or passages of the source.
# What was measured:
# [1] = target: T1, SARS-CoV-2 PLpro (nsp3 1564–1878) (Severe acute respiratory syndrome coronavirus 2, UniProt P0DTD1); experiment: biochemical; set-up: FRET-quenched peptide (Pro3) cleavage by PLpro, 10 min pre-incubation, slope over 20 min, normalised to no-compound control; conditions: low concentration screen
# [2] = target: T1, SARS-CoV-2 PLpro (nsp3 1564–1878); experiment: biochemical; set-up: FRET-quenched peptide (Pro3) cleavage by PLpro, 10 min pre-incubation, slope over 20 min, normalised to no-compound control; conditions: high concentration screen
# [3] = Well no.=5964, read-out: % of control remaining
# [4] = Well no.=199, read-out: % of control remaining
# [5] = Well no.=488, read-out: % of control remaining
# [6] = Well no.=910, read-out: % of control remaining
# [7] = Well no.=3420, read-out: % of control remaining
# [8] = Well no.=7261, read-out: % of control remaining
# [9] = Well no.=6018, read-out: % of control remaining
# [10] = Well no.=5634, read-out: % of control remaining
# [11] = Well no.=5969, read-out: % of control remaining
# [12] = Well no.=5556, read-out: % of control remaining
# [13] = Well no.=5526, read-out: % of control remaining
# [14] = Well no.=6014, read-out: % of control remaining
# [15] = Well no.=6149, read-out: % of control remaining
# [16] = Well no.=295, read-out: % of control remaining
# [17] = Well no.=309, read-out: % of control remaining
# [18] = Well no.=6203, read-out: % of control remaining
# [19] = Well no.=5181, read-out: % of control remaining
# [20] = Well no.=6349, read-out: % of control remaining
# [21] = read-out: % of control remaining, Well no.=149
# [22] = Well no.=2119, read-out: % of control remaining
# [23] = Well no.=305, read-out: % of control remaining
# [24] = Well no.=154, read-out: % of control remaining
# [25] = Well no.=2397, read-out: % of control remaining
# [26] = Well no.=594, read-out: % of control remaining
# [27] = Well no.=6679, read-out: % of control remaining
# [28] = Well no.=7687, read-out: % of control remaining
# [29] = Well no.=750, read-out: % of control remaining
# [30] = Well no.=6723, read-out: % of control remaining
# [31] = Well no.=426, read-out: % of control remaining
# [32] = Well no.=6729, read-out: % of control remaining
# [33] = Well no.=6876, read-out: % of control remaining
# [34] = Well no.=1237, read-out: % of control remaining
# [35] = Well no.=4432, read-out: % of control remaining
# [36] = Well no.=1428, read-out: % of control remaining
# [37] = Well no.=608, read-out: % of control remaining
# [38] = Well no.=6739, read-out: % of control remaining
# [39] = Well no.=776, read-out: % of control remaining
structure (smiles),measurement,setting,value
NC(=S)NN=Cc1ncccc1N [3-amino-2-pyridinecarbaldehyde thiosemicarbazone],remaining activity at 1.25 µM,[1]; [3],98.3%
same,remaining activity at 3.75 µM,[2]; [3],97.9%
NC(=O)c1cccc(N)c1 [3-aminobenzamide],remaining activity at 1.25 µM,[1]; [4],101%
same,remaining activity at 3.75 µM,[2]; [4],98.8%
Nc1nccc2c1ncn2[C@@H]1O[C@H](CO)[C@@H](O)[C@H]1O [3-deazaadenosine],remaining activity at 1.25 µM,[1]; [5],94.5%
same,remaining activity at 3.75 µM,[2]; [5],95.2%
CCCn1c(=O)[nH]c(=O)c2[nH]cnc21 [3-n-Propylxanthine],remaining activity at 1.25 µM,[1]; [6],105%
same,remaining activity at 3.75 µM,[2]; [6],104%
"Cc1cc2cc3c(C)cc(=O)oc3c(C)c2o1 [4,5',8-Trimethylpsoralen]",remaining activity at 1.25 µM,[1]; [7],99.6%
same,remaining activity at 3.75 µM,[2]; [7],95.9%
"CC(=O)CC(=O)CCC(=O)O [4,6-Dioxoheptanoic acid]",remaining activity at 1.25 µM,[1]; [8],102%
same,remaining activity at 3.75 µM,[2]; [8],102%
"O=[N+]([O-])c1ccc(Nc2nc(N3CCOCC3)nc(N3CCOCC3)n2)cc1 [4,6-di(4-morpholinyl)-N-(4-nitrophenyl)-1,3,5-triazin-2-amine]",remaining activity at 1.25 µM,[1]; [9],94.4%
same,remaining activity at 3.75 µM,[2]; [9],92.3%
"CC1(C)CC(=O)C2=C(C1)NC(=S)NC2c1cccc(O)c1 (centres unmarked) [4-(3-hydroxyphenyl)-7,7-dimethyl-2-thioxo-2,3,4,6,7,8-hexahydro-5(1H)-quinazolinone]",remaining activity at 1.25 µM,[1]; [10],94.5%
same,remaining activity at 3.75 µM,[2]; [10],95.1%
"Cc1ccc(-c2n[nH]c3c2C(c2cccc(O)c2)N(c2ccc(C(=O)O)cc2)C3=O)cc1 (centres unmarked) [4-(4-(3-hydroxyphenyl)-3-(4-methylphenyl)-6-oxo-4,6-dihydropyrrolo[3,4-c]pyrazol-5(1H)-yl)benzoic acid]",remaining activity at 1.25 µM,[1]; [11],100%
same,remaining activity at 3.75 µM,[2]; [11],97.4%
"CN1c2cc3c(cc2N=C(c2ccc(C(=O)O)cc2)c2ccccc21)C(C)(C)CCC3(C)C [4-(5,7,7,10,10-pentamethyl-7,8,9,10-tetrahydro-5H-naphtho[2,3-b][1,4]benzodiazepin-13-yl)benzoic acid]",remaining activity at 1.25 µM,[1]; [12],104%
same,remaining activity at 3.75 µM,[2]; [12],100%
"O=C(O)c1ccc(SC2=NS(=O)(=O)c3ccccc32)cc1 [4-((1,1-dioxidobenzo[d]isothiazol-3-yl)thio)benzoic acid]",remaining activity at 1.25 µM,[1]; [13],97.8%
same,remaining activity at 3.75 µM,[2]; [13],102%
c1ccc(C(OC2CCN(CCCc3nn[nH]n3)CC2)c2ccccc2)cc1 [4-(benzhydryloxy)-1-[3-(1H-tetraazol-5-yl)propyl]piperidine],remaining activity at 1.25 µM,[1]; [14],95.5%
same,remaining activity at 3.75 µM,[2]; [14],93.3%
CC(=O)NCCCC(=O)O [4-Acetamidobutanoic acid],remaining activity at 1.25 µM,[1]; [15],110%
same,remaining activity at 3.75 µM,[2]; [15],106%
"Nc1ccc2c3c(cccc13)C(=O)NC2=O [4-Amino-1,8-naphthalimide]",remaining activity at 1.25 µM,[1]; [16],103%
same,remaining activity at 3.75 µM,[2]; [16],92.9%
N=C(N)c1ccc(N)cc1 [4-Aminobenzamidine dihydrochloride],remaining activity at 1.25 µM,[1]; [17],91.8%
same,remaining activity at 3.75 µM,[2]; [17],92.5%
Nc1ccc(C(=O)O)cc1 [4-Aminobenzoic acid],remaining activity at 1.25 µM,[1]; [18],97.3%
same,remaining activity at 3.75 µM,[2]; [18],101%
Nc1ccc(C(=O)NCC(=O)O)cc1 [4-Aminohippuric Acid],remaining activity at 1.25 µM,[1]; [19],95.9%
same,remaining activity at 1.25 µM,[1]; [20],105%
same,remaining activity at 3.75 µM,[2]; [19],95.3%
same,remaining activity at 3.75 µM,[2]; [20],103%
Nc1ccncc1 [4-Aminopyridine],remaining activity at 1.25 µM,[1]; [21],104%
same,remaining activity at 3.75 µM,[2]; [21],104%
Nc1ccc(C(=O)O)c(O)c1 [4-Aminosalicylic acid],remaining activity at 1.25 µM,[1]; [22],99.3%
same,remaining activity at 3.75 µM,[2]; [22],101%
"C[C@]12CCC(=O)C(O)=C1CC[C@@H]1[C@@H]2CC[C@]2(C)C(=O)CC[C@@H]12 [4-Androsten-4-ol-3,17-dione]",remaining activity at 1.25 µM,[1]; [23],96.5%
same,remaining activity at 3.75 µM,[2]; [23],93.5%
"C[C@]12CCC(=O)C=C1CC[C@@H]1[C@@H]2CC[C@]2(C)C(=O)CC[C@@H]12 [4-Androstene-3,17-dione]",remaining activity at 1.25 µM,[1]; [24],103%
same,remaining activity at 3.75 µM,[2]; [24],99.2%
Cc1ncc2ccccc2c1C#N [4-Cyano-3-methylisoquinoline],remaining activity at 1.25 µM,[1]; [25],97.4%
same,remaining activity at 3.75 µM,[2]; [25],95.8%
O=C(OC1CCN(CCCl)CC1)C(c1ccccc1)c1ccccc1 [4-Diphenylacetoxy-N-(2-chloroethyl)piperidine hydrochloride],remaining activity at 1.25 µM,[1]; [26],92.6%
same,remaining activity at 3.75 µM,[2]; [26],92.6%
CCc1ccc(O)cc1 [4-Ethylphenol],remaining activity at 1.25 µM,[1]; [27],103%
same,remaining activity at 3.75 µM,[2]; [27],104%
NC(N)=NCCCC(=O)O [4-Guanidinobutanoic acid],remaining activity at 1.25 µM,[1]; [28],108%
same,remaining activity at 3.75 µM,[2]; [28],106%
COc1cc(CC(=O)O)ccc1O [4-Hydroxy-3-methoxyphenylacetic acid],remaining activity at 1.25 µM,[1]; [29],99.7%
same,remaining activity at 3.75 µM,[2]; [29],97.2%
Cc1cc(C(=O)O)ccc1O [4-Hydroxy-3-methylbenzoic acid],remaining activity at 1.25 µM,[1]; [30],100%
same,remaining activity at 3.75 µM,[2]; [30],101%
NNC(=O)c1ccc(O)cc1 [4-Hydroxybenzhydrazide],remaining activity at 1.25 µM,[1]; [31],97.3%
same,remaining activity at 3.75 µM,[2]; [31],97%
O=C(O)c1ccc(O)cc1 [4-Hydroxybenzoic acid],remaining activity at 1.25 µM,[1]; [32],108%
same,remaining activity at 3.75 µM,[2]; [32],105%
OCc1ccc(O)cc1 [4-Hydroxybenzyl alcohol],remaining activity at 1.25 µM,[1]; [33],98.2%
same,remaining activity at 3.75 µM,[2]; [33],95.1%
NCCc1ccc(O)cc1 [4-Hydroxyphenethylamine hydrochloride],remaining activity at 1.25 µM,[1]; [34],101%
same,remaining activity at 3.75 µM,[2]; [34],102%
CC1=C(/C=C/C(C)=C/C=C/C(C)=C/C(=O)Nc2ccc(O)cc2)C(C)(C)CCC1 [4-Hydroxyphenylretinamide],remaining activity at 1.25 µM,[1]; [35],99%
same,remaining activity at 3.75 µM,[2]; [35],97.3%
O=C(O)/C=C/c1cnc[nH]1 [4-Imidazoleacrylic acid],remaining activity at 1.25 µM,[1]; [36],95.1%
same,remaining activity at 3.75 µM,[2]; [36],98.1%
OCc1cnc[nH]1 [4-Imidazolemethanol hydrochloride],remaining activity at 1.25 µM,[1]; [37],97.2%
same,remaining activity at 3.75 µM,[2]; [37],96.7%
Cc1ccc(O)c(O)c1 [4-Methylcatechol],remaining activity at 1.25 µM,[1]; [38],106%
same,remaining activity at 3.75 µM,[2]; [38],108%
Cc1cn[nH]c1 [4-Methylpyrazole hydrochloride],remaining activity at 1.25 µM,[1]; [39],98.4%
same,remaining activity at 3.75 µM,[2]; [39],99.2%
